Measurements published in patent publication US10676473B2, “Solid state forms of fused heteroaromatic pyrrolidinones” (TAKEDA PHARMACEUTICAL COMPANY LIMITED, priority 2014, dated 2020).
≈ marks a conversion by molar mass, not a printed value. Entries after “also recorded” stand apart in the source; their conditions may differ. Where a name gives a salt, the structure may show the parent alone. Read-outs that look alike come from different tables or passages of the source.

Assays:
[1] = Gravimetric vapour sorption (GVS) isotherm; format: physicochemical; conditions: for hygroscopicity by GVS / GVS behaviour (dehydration, crystallisation, transformation): 25° C.; for hygroscopicity by GVS: subjected to humidity (various RH levels); for GVS behaviour (dehydration, crystallisation, transformation): RH as stated in the value; for change in form / XRPD pattern post GVS analysis: XRPD after the isotherm; for GVS mass / total weight change: between 0-90% RH; for water exchanged (GVS): between 0 and 90% RH
Protocol: Sorption isotherms were obtained using a SMS DVS Intrinsic moisture sorption analyser, controlled by DVS Intrinsic Control software v1.0.0.30. The sample temperature was maintained at 25° C. by the instrument controls. The humidity was controlled by mixing streams of dry and wet nitrogen, with a total flow rate of 200 ml/min The relative humidity was measured by a calibrated Rotronic probe (dynamic range of 1.0-100% RH), located near the sample. The weight change, (mass relaxation) of the sample as a function of % RH was constantly monitored by the microbalance (accuracy ±0.005 mg).
Typically 5-20 mg of sample was placed in a tared mesh stainless steel basket under ambient conditions. The sample was loaded and unloaded at 40% RH and 25° C. (typical room conditions). A moisture sorption isotherm was performed as outlined below (2 scans giving 1 complete cycle). The standard isotherm was performed at 25° C. at 10% RH intervals over a 0-90% RH range. Data analysis was undertaken in Microsoft Excel using DVS Analysis Suite v6.0.
The sample was recovered after completion of the isotherm and re-analyzed by XRPD.

[2] = Storage at elevated temperature/humidity, form checked by XRPD; format: physicochemical; conditions: for stability on storage: duration not given; for stability to moisture / humidity: exposure to humidity
[3] = system: advanced solid tumors/lymphoma; assay: Response assessment (RECIST / IWG criteria) in patients; format: in vivo, human
Protocol: (§1) Patients aged ≥18 yrs with advanced solid tumors/lymphoma whose disease failed standard therapies received oral Compound 1 citrate (Form 1) daily (QD, 60-120 mg) in 28 day cycles. To determine the maximum tolerated dose, dose escalation proceeded via modified titration design based on dose limiting toxicity or any drug-related grade ≥2 adverse event (AE) during cycle 1. Blood samples for plasma pharmacokinetic assessments were collected pre-dose and post-dose on day 1 and day 15 of cycle 1. Response assessments per RECIST for solid tumors and per IWG criteria for lymphoma were performed between day 22 and day 29 (pre-dose) of cycle 2, 4 and 6, and every 3 cycles thereafter.

[4] = Plasma pharmacokinetics in patients, oral once daily dosing; conditions: human, in vivo
Protocol: as §1

[5] = Safety and dose limiting toxicity in the dose escalation study in patients; format: in vivo, human
Protocol: as §1

[6] = Solubility of solid forms; format: physicochemical
[7] = DLBCL, 60 mg QD, after 2 cycles

SMILES: Cn1cc(-c2nc(N[C@@H]3CCCC[C@@H]3N)c(F)c3c2C(=O)NC3)cn1 [Compound 1 citrate, 6-(((1R,2S)-2-aminocyclohexyl)amino)-7-fluoro-4-(1-methyl-1H-pyrazol-4-yl)-1H-pyrrolo[3,4-c]pyridin-3(2H)-one citrate]
- hygroscopicity by GVS ([1]; citrate): non hygroscopic

SMILES: Cn1cc(-c2nc(N[C@@H]3CCCC[C@@H]3N)c(F)c3c2C(=O)NC3)cn1 [Compound 1 free base, 6-((1R,2S)-2-aminocyclohexylamino)-7-fluoro-4-(1-methyl-1H-pyrazol-4-yl)-1H-pyrrolo[3,4-c]pyridine-3(2H)-one]
- stability on storage ([2]; 40° C./75% RH): the methanol solvate desolvated, however, the anhydrous form was found to be stable
- GVS behaviour (dehydration, crystallisation, transformation) [1]: the methanol solvate desolvated, however, the anhydrous form was found to be stable

SMILES: Cn1cc(-c2nc(N[C@@H]3CCCC[C@@H]3N)c(F)c3c2C(=O)NC3)cn1 [Form 1]
- change in form after storage ([2]; 25° C./97% RH for 1 week): No change in form was observed
- change in form after storage ([2]; 40° C./75% RH for 1 week): No change in form was observed
- DLBCL patients showing signs of response ([3]; 60 mg QD, after 2 cycles, 5 response-evaluable patients (4 DLBCL)): 2 patients
- patients with partial response [3, 7]: 1
- tumor reduction in 1 patient [3, 7]: 25%
- patients achieving partial response ([3]; DLBCL, 80 mg, after 1 cycle, post data cut-off): 1 patient
- hygroscopicity by GVS [1]: not hygroscopic
- GVS variation ([1]; RH range not printed at the place): less than 0.3 % w/w
- change in form / XRPD pattern post GVS analysis [1]: No change in form was observed
- GVS mass / total weight change [1]: less than 0.3%
- mean accumulation ([4]; 15 days): 2.7 fold
- coefficient of variation for dl 5 AUCtau (variability in steady-state exposures) ([4]; po, 120 mg): 47%
- Tmax ([4]; plasma, 11 patients at 60 and 120 mg oral QD, read-out: median Tmax): 2 h
- patients died on study (deaths not related to study drug) ([5]; 60 mg QD): 3
- patients died on study (deaths not related to study drug) ([5]; 120 mg QD): 1 patient
- patients discontinued due to adverse events ([5]; human, in vivo): 3 patients
- patients died on study (deaths not related to study drug) ([5]; overall, 15 patients): 4 patients

SMILES: Cn1cc(-c2nc(N[C@@H]3CCCC[C@@H]3N)c(F)c3c2C(=O)NC3)cn1 [Form 2]
- GVS behaviour (dehydration, crystallisation, transformation) [1]: adsorbs moisture in the range of 40-80% relative humidity (RH) and undergoes a crystallization event above 80% RH; also recorded: undergoes a crystallisation event above 80% RH
- change in form / XRPD pattern post GVS analysis [1]: transformation to Form 1
- GVS weight loss accompanying crystallization ([1]; between 80% and 90% RH): 7%
- moisture adsorbed (GVS) ([1]; range of 40-80% RH): 9 % w/w

SMILES: Cn1cc(-c2nc(N[C@@H]3CCCC[C@@H]3N)c(F)c3c2C(=O)NC3)cn1 [Form 3, 6-(((1R,2S)-2-aminocyclohexyl)amino)-7-fluoro-4-(1-methyl-1H-pyrazol-4-yl)-1H-pyrrolo[3,4-c]pyridin-3(2H)-one hydrochloride dihydrate]
- change in form after storage ([2]; 25° C./97% RH for 1 week): No change in form was observed
- change in form after storage ([2]; 40° C./75% RH for 1 week): No change in form was observed
- GVS behaviour (dehydration, crystallisation, transformation) ([1]; hydrochloride dihydrate): subject to dehydration below 20% RH
- change in form / XRPD pattern post GVS analysis ([1]; hydrochloride dihydrate): No change in form was observed

SMILES: Cn1cc(-c2nc(N[C@@H]3CCCC[C@@H]3N)c(F)c3c2C(=O)NC3)cn1 [Form 4]
- change in form during storage ([2]; 25° C./97% RH for 10 days): did not change form
- change in form during storage ([2]; 40° C./75% RH for 10 days): did not change form
- change in form during storage ([2]; 40° C./97% RH for 10 days): did not change form
- stability to moisture / humidity [2]: stable to moisture
- hygroscopicity by GVS [1]: not hygroscopic; also recorded: non-hygroscopic

SMILES: Cn1cc(-c2nc(N[C@@H]3CCCC[C@@H]3N)c(F)c3c2C(=O)NC3)cn1 [Form 5]
- change in form during storage ([2]; 40° C./97% RH for 10 days): did not change form
- stability to moisture / humidity [2]: stable to moisture
- solubility ([6]; medium not given, read-out: solubility): 11000 µg/mL (≈ 31900 µM)
- hygroscopicity by GVS [1]: not hygroscopic
- change in form / XRPD pattern post GVS analysis [1]: did not change form

SMILES: Cn1cc(-c2nc(N[C@@H]3CCCC[C@@H]3N)c(F)c3c2C(=O)NC3)cn1 [Form 6]
- stability to moisture / humidity [2]: seems to undergo a phase transformation, possibly leading to Form 9
- GVS behaviour (dehydration, crystallisation, transformation) [1]: adsorbs moisture and undergoes a crystallisation event above 70% RH
- GVS water uptake ([1]; between 40-60% RH): 5 % w/w
- GVS weight loss ([1]; between 70-90% RH): 3%

SMILES: Cn1cc(-c2nc(N[C@@H]3CCCC[C@@H]3N)c(F)c3c2C(=O)NC3)cn1 [Form 7]
- stability to moisture / humidity [2]: unstable to humidity and converted back to a hydrated form (Form 9)
- GVS water uptake ([1]; RH range not given): 10.5%

SMILES: Cn1cc(-c2nc(N[C@@H]3CCCC[C@@H]3N)c(F)c3c2C(=O)NC3)cn1 [Form 8]
- GVS behaviour (dehydration, crystallisation, transformation) [1]: minimal weight variation between 10 and 90% RH

SMILES: Cn1cc(-c2nc(N[C@@H]3CCCC[C@@H]3N)c(F)c3c2C(=O)NC3)cn1 [Form 12]
- stability on storage ([2]; 25° C./97% RH): not stable
- stability on storage ([2]; 40° C./75% RH): No obvious stability issues were noted
- solubility ([6]; water, pH 9.41, pH 9.41, read-out: aqueous solubility): 580 µg/mL (≈ 1680 µM)
- GVS behaviour (dehydration, crystallisation, transformation) [1]: Hysterisis was observed between 40 and 60% RH; also recorded: possibility of the transformation of Form 12 to a hydrated form
- GVS mass / total weight change [1]: about 6%

SMILES: Cn1cc(-c2nc(N[C@@H]3CCCC[C@@H]3N)c(F)c3c2C(=O)NC3)cn1 [Form 13]
- stability on storage ([2]; 25° C./97% RH): stable
- stability on storage ([2]; 40° C./75% RH): stable
- solubility ([6]; water, pH 9.05, pH 9.05, read-out: aqueous solubility): 190 µg/mL (≈ 552 µM)
- hygroscopicity by GVS [1]: not hygroscopic
- change in form / XRPD pattern post GVS analysis [1]: no transformation to hydrates was observed
- GVS mass / total weight change [1]: less than 0.6%

SMILES: Cn1cc(-c2nc(N[C@@H]3CCCC[C@@H]3N)c(F)c3c2C(=O)NC3)cn1 [Form 14]
- stability on storage ([2]; 25° C./97% RH): stable
- stability on storage ([2]; 40° C./75% RH): stable
- change in form / XRPD pattern post GVS analysis [1]: no change in the XRPD pattern was noted
- GVS mass / total weight change [1]: 1.5%
- water exchanged (GVS) [1]: 0.25 eq.

SMILES: Cn1cc(-c2nc(N[C@@H]3CCCC[C@@H]3N)c(F)c3c2C(=O)NC3)cn1 [Form 15]
- stability on storage ([2]; 25° C./97% RH): stable
- stability on storage ([2]; 40° C./75% RH): stable
- aqueous solubility ([6]; pH 9.41): 710 µg/mL (≈ 2060 µM)
- change in form / XRPD pattern post GVS analysis [1]: no change in the XRPD pattern was noted
- GVS mass / total weight change [1]: 2.0%
- water exchanged (GVS) [1]: 0.4 eq.

SMILES: Cn1cc(-c2nc(N[C@@H]3CCCC[C@@H]3N)c(F)c3c2C(=O)NC3)cn1 [Form 16]
- stability on storage ([2]; 25° C./97% RH): No changes in the XRPD pattern were observed
- stability on storage ([2]; 40° C./75% RH): No changes in the XRPD pattern were observed
- solubility ([6]; water, pH 9.27, pH 9.27, read-out: aqueous solubility): 130 µg/mL (≈ 377 µM)
- GVS behaviour (dehydration, crystallisation, transformation) [1]: dehydration below 30% RH; also recorded: stable at and above 30% RH at 25 °C and desolvated below 30% RH

SMILES: Cn1cc(-c2nc(N[C@@H]3CCCC[C@@H]3N)c(F)c3c2C(=O)NC3)cn1 [Form 17]
- stability on storage ([2]; 25° C./97% RH): stable
- stability on storage ([2]; 40° C./75% RH): stable
- solubility ([6]; water, pH 9.33, pH 9.33, read-out: aqueous solubility): 180 µg/mL (≈ 523 µM)
- change in form / XRPD pattern post GVS analysis [1]: no change in the XRPD pattern was noted
- water exchanged (GVS) [1]: 0.3 eq.
